Test results from a melting point compilation (Tetko et al.; mined from patent text by program, amines drawn as free bases though some values may be those of a salt).

Row | Compound | melting point [°C]
1 | Cc1ccc(S(=O)(=O)N2CCC(c3cccc4c3CCCC(C(=O)Nc3ccc(CN(C)C5CCOCC5)cc3)=C4)CC2)cc1 | 175 to 176
2 | c1cncc(Nc2ncc(-c3ccncn3)c(-c3ccco3)n2)c1 | 174
3 | COC1=NS(=O)(=O)N(Cc2ccccc2)C(N)=N1 | 141 to 144
4 | C=Cc1ccc(CN2C(=O)c3ccccc3C2=O)c(Cl)c1 | 141 to 143
5 | O=c1[nH]c2ccc3c(c2[nH]c1=O)CCCN3 | > 285
6 | Nc1nc(NC2CCC2)c2ncn(C3C=CC(CO)C3)c2n1 (configuration not stated) | 181 to 183
7 | CCOC(=O)C(C)=NNc1ccc(Br)cc1 | 153 to 154
8 | OCc1nccc(N2CCOCC2)n1 | 76 to 78
9 | CC(=O)c1cc(S(=O)(=O)N(C)C)ccc1O | 115 to 116
10 | CS(=O)(=O)Nc1cc2oc(C#N)c(NC=O)c(=O)c2cc1Oc1ccccc1 | 229 to 230
11 | O=C(NC1(C(=O)O)Cc2ccc(Br)cc2C1)c1cn2cc(-c3ccc(Cl)cc3)ccc2n1 (configuration not stated) | 328
12 | CCOC(=O)C(Cc1ccc(S(C)=O)cc1)(NC(C)=O)C(=O)OCC (configuration not stated) | 135 to 136
13 | Nc1sc2c(c1C(=O)c1ccc(Cl)cc1)CCN(C(=O)Nc1ccccc1)C2 | 216 to 217
14 | NC(=NO)C1CCc2ccccc2CC1 | 219
15 | O=c1oc(-c2ccccc2)cc(O)c1Sc1cccc(Cl)c1 | 181 to 182
16 | CC(=O)c1ccc(Nc2cccc(-c3ccccn3)c2)c(N)c1 | 145 to 146
17 | CC(C)(C)OC(=O)NCCC[C@H](NC(=O)OC(C)(C)C)C(=O)OC(C)(C)C | 80 to 82
18 | C#CCn1c(-c2cc(Cl)nc(Cl)c2)nn(C(C)(C)C)c1=O | 107 to 109
19 | CS(=O)(=O)c1ccnc(Oc2cc(C#N)cc(C#N)c2)n1 | 189 to 191
20 | C=CCn1cccc1C(N)=S | 80.5 to 83
21 | COc1ccc(-c2ccc(OC3SCC(OC(C)=O)C(OC(C)=O)C3OC(C)=O)cn2)cc1 (configuration not stated) | 208

Row | Compound | melting point [°C]
22 | ON=Cc1cc(OCC(F)(F)F)ccc1OCc1ccccc1 | 93 to 95
23 | COc1cc(C)c(C(=O)c2c(Cl)cccc2Cl)cc1OC(F)F | 126 to 128
24 | N#CNC(=NCCc1ccccc1Cl)c1cncc(NC(=O)c2ccccc2)c1 | 220
25 | CC(=O)C=Cc1ccc2c(c1)OCO2 | 108 to 109
26 | O=[N+]([O-])c1sc(-c2cccnc2)nc1Cl | 110 to 112
27 | O=C1CCC(N2Cc3c(OCc4ccc(CN5CCOCC5)cc4)cccc3C2=O)C(=O)N1 (configuration not stated) | 206 to 208
28 | CC1(CC(=O)O)CCCCCC1=O (configuration not stated) | 43 to 45
29 | CC1=C(CCN(O)C(N)=O)c2cc(F)ccc2/C1=C\c1ccc(S(C)(=O)=O)cc1 | 187
30 | C#CCCCn1ncc2c(N)c(C(=O)OCC=C)c(C)nc21 | 99.5
31 | COc1ccc2c(c1OC(C)=O)NC(O)C1CCCN1C2=O (configuration not stated) | 144 to 146
32 | COc1cccc(CC(c2ccccc2)N(CCO)CCO)c1 (configuration not stated) | 67 to 69
33 | CCCc1cc(C(=O)O)ccc1OCc1ccccc1 | 163
34 | CCn1cc(Br)nc(S(=O)(=O)Cc2ccc(Cl)cc2)c1=O | 145 to 147
35 | NC(=O)c1cn2c(ccc3ccccc32)n1 | 270 to 271
36 | CC1(c2ccccc2)C(=O)Nc2cc(Cl)c(Cl)cc2C1=O (configuration not stated) | 213 to 214
37 | CNc1nc(N(C)C)nc2c1nnn2Cc1ccccc1F | 199 to 200
38 | CCOC(=O)Cc1ccc(NC(=O)C(Cn2ccnc2)NS(=O)(=O)c2ccc(F)cc2)cc1 (racemic) | 155 to 157
39 | COc1cccc(Nn2cnc(C)c2-c2ccccc2)c1 | 156 to 158
40 | CSc1cc(C(F)(F)F)ccc1C(=O)CC(=O)C1CC1 | 64
41 | O=C(O)CCN1CCN2c3ccccc3Sc3ccccc3C2C1 (configuration not stated) | 218 to 220
42 | CCOC(=O)c1oc(Br)nc1C | 94.5 to 95.5
